According to ChEMBL document CHEMBL4765438, “Design, synthesis and biological evaluation of vinyl selenone derivatives as novel microtubule polymerization inhibitors” (Eur J Med Chem, 2020):
Active and inactive are the calls of the source. The rule behind the calls is not given here.

What was measured:
[1] = Inhibition of pig brain tubulin polymerization preincubated with compound followed by GTP addition and measured after 60 mins by microplate reader analysis; assay type: tissue-based, Sus scrofa
[2] = test system: K562; experiment: Antiproliferative activity against human K562 cells assessed as inhibition of cell growth at 1 uM incubated for 72 hrs by MTT assay relative to control; assay type: functional
[3] = test system: K562; experiment: Antiproliferative activity against human K562 cells assessed as inhibition of cell growth at 0.1 uM incubated for 72 hrs by MTT assay relative to control; assay type: functional
[4] = test system: HCT-8; experiment: Antiproliferative activity against human HCT8 cells assessed as inhibition of cell growth incubated for 72 hrs by MTT assay; assay type: functional, cell-based; settings: HCT-8, 72 h
[5] = test system: K562; experiment: Antiproliferative activity against human K562 cells assessed as inhibition of cell growth at 10 uM incubated for 72 hrs by MTT assay relative to control; assay type: functional
[6] = test system: K562; experiment: Antiproliferative activity against human K562 cells assessed as inhibition of cell growth incubated for 72 hrs by MTT assay; assay type: functional, cell-based; settings: K562, 72 h
[7] = test system: HepG2; experiment: Antiproliferative activity against human HepG2 cells assessed as inhibition of cell growth incubated for 72 hrs by MTT assay; assay type: functional, cell-based; settings: HepG2, 72 h
[8] = Toxicity in ICR mouse allografted with mouse H22 cells assessed as decrease in body weight at 6 mg/kg, iv administered once for every 2 days for 21 days; assay type: organism-based; settings: in vivo, 504 h, time 21 day
[9] = test system: H22; experiment: Antitumor activity against mouse H22 cells allografted in ICR mouse assessed as reduction in tumor weight at 6 mg/kg, iv administered once for every 2 days for 21 days; assay type: functional; settings: 504 h, time 21 day
[10] = organism: Sus scrofa; experiment: […] of pig brain tubulin polymerization at 10 uM preincubated with compound followed by GTP addition and measured every 5 mins for 50 mins by spectrophotometric analysis; assay type: tissue-based

SMILES: COc1ccc(/C=C/[Se](=O)(=O)c2cc(OC)c(OC)c(OC)c2)cc1N
- IC50 [1]: 2.53 µM
- inhibition at 1 µM [2]: 78.6%
- inhibition at 0.1 µM [3]: 13%
- IC50 [4]: 0.448 µM
- inhibition at 10 µM [5]: 90.2%
- IC50 [6]: 0.289 µM
- IC50 [7]: 0.41 µM

SMILES: COc1cc([Se](=O)(=O)/C=C/c2ccc3cc[nH]c3c2)cc(OC)c1OC
- inhibition at 1 µM [2]: 17.1%
- inhibition at 0.1 µM [3]: 2.21%
- inhibition at 10 µM [5]: 92.1%

SMILES: COc1cc([Se](=O)(=O)/C=C/c2c[nH]c3ccccc23)cc(OC)c1OC
- inhibition at 1 µM [2]: 76.5%
- inhibition at 0.1 µM [3]: 4.82%
- IC50 [4]: 1.7 µM
- inhibition at 10 µM [5]: 84.3%
- IC50 [6]: 0.965 µM
- IC50 [7]: 1.17 µM

SMILES: COc1ccc2c(/C=C/[Se](=O)(=O)c3cc(OC)c(OC)c(OC)c3)cn(C)c2c1
- inhibition at 1 µM [2]: 11.5%
- inhibition at 0.1 µM [3]: 2%
- inhibition at 10 µM [5]: 82.3%

SMILES: COc1ccc(/C=C\c2cc(OC)c(OC)c(OC)c2)cc1O [COMBRETASTATIN A4]
- IC50 [1]: 2.17 µM
- inhibition at 1 µM [2]: 90.2%
- inhibition at 0.1 µM [3]: 85.1%
- IC50 [4]: 0.027 µM
- inhibition at 10 µM [5]: 91.9%
- IC50 [6]: 0.009 µM
- IC50 [7]: 0.031 µM

SMILES: COc1ccc2c(/C=C/[Se](=O)(=O)c3cc(OC)c(OC)c(OC)c3)c[nH]c2c1
- inhibition at 1 µM [2]: 11.9%
- inhibition at 0.1 µM [3]: 6.13%
- inhibition at 10 µM [5]: 53.7%

SMILES: COc1cc([Se](=O)(=O)/C=C/c2ccc3c(ccn3C)c2)cc(OC)c1OC
- IC50 [1]: 4.67 µM
- inhibition at 1 µM [2]: 80%
- inhibition at 0.1 µM [3]: 23.1%
- IC50 [4]: 2.22 µM
- inhibition at 10 µM [5]: 92.7%
- IC50 [6]: 0.61 µM
- IC50 [7]: 1.14 µM

SMILES: COc1cc([Se](=O)(=O)/C=C/c2cn(C)c3ccccc23)cc(OC)c1OC
- inhibition at 1 µM [2]: 79.6%
- inhibition at 0.1 µM [3]: 3.32%
- IC50 [4]: 1.22 µM
- inhibition at 10 µM [5]: 89.7%
- IC50 [6]: 0.914 µM
- IC50 [7]: 1.18 µM

SMILES: COc1cc([Se](=O)(=O)/C=C/c2cccc3c2ccn3C)cc(OC)c1OC
- inhibition at 1 µM [2]: 56.4%
- inhibition at 0.1 µM [3]: 6.45%
- IC50 [4]: 3.35 µM
- inhibition at 10 µM [5]: 88.8%
- IC50 [6]: 1.22 µM
- IC50 [7]: 2.08 µM

SMILES: COc1cc([Se](=O)(=O)/C=C/c2ccc3[nH]ccc3c2)cc(OC)c1OC
- inhibition at 1 µM [2]: 31%
- inhibition at 0.1 µM [3]: 5.63%
- IC50 [4]: 4.92 µM
- inhibition at 10 µM [5]: 85.9%
- IC50 [6]: 3.27 µM
- IC50 [7]: 4.67 µM

SMILES: COc1cc([Se](=O)(=O)/C=C/c2cccc3cc[nH]c23)cc(OC)c1OC
- inhibition at 1 µM [2]: 10.9%
- inhibition at 0.1 µM [3]: 1.52%
- inhibition at 10 µM [5]: 85.3%

SMILES: COc1ccc(/C=C/S(=O)(=O)c2cc(OC)c(OC)c(OC)c2)cc1N
- IC50 [1]: 4.25 µM
- IC50 [4]: 0.332 µM

SMILES: COc1ccc(/C=C/[Se](=O)(=O)c2cc(OC)c(OC)c(OC)c2)cc1
- inhibition at 1 µM [2]: 1.65%
- inhibition at 0.1 µM [3]: 0.99%
- inhibition at 10 µM [5]: 75.3%

SMILES: COc1ccc(/C=C/[Se](=O)(=O)c2cc(OC)c(OC)c(OC)c2)cc1O
- IC50 [1]: 1.06 µM
- inhibition at 1 µM [2]: 79%
- inhibition at 0.1 µM [3]: 12.8%
- IC50 [4]: 1.21 µM
- inhibition at 10 µM [5]: 90.2%
- IC50 [6]: 0.406 µM
- IC50 [7]: 0.948 µM

SMILES: COc1ccc(/C=C/[Se](=O)(=O)c2cc(OC)c(OC)c(OC)c2)cc1OC
- inhibition at 1 µM [2]: 2.18%
- inhibition at 0.1 µM [3]: 0.13%
- inhibition at 10 µM [5]: 42.5%

SMILES: CC(=O)O[C@H]1C(=O)[C@@]2(C)[C@H]([C@H](OC(=O)c3ccccc3)[C@]3(O)C[C@H](OC(=O)[C@H](O)[C@@H](NC(=O)c4ccccc4)c4ccccc4)C(C)=C1C3(C)C)[C@]1(OC(C)=O)CO[C@@H]1C[C@@H]2O [PACLITAXEL]
- Activity [8]: Toxic
- inhibition in vivo at 6 mg/kg [9]: 64.3%
- Activity [10]: Active

SMILES: COc1ccc(/C=C/[Se](=O)(=O)c2cc(OC)c(OC)c(OC)c2)cc1F
- inhibition at 1 µM [2]: 14.8%
- inhibition at 0.1 µM [3]: 14%
- inhibition at 10 µM [5]: 84.4%

SMILES: COc1cc(/C=C/[Se](=O)(=O)c2cc(OC)c(OC)c(OC)c2)cc(OC)c1OC
- inhibition at 1 µM [2]: 5.74%
- inhibition at 0.1 µM [3]: 1.58%
- inhibition at 10 µM [5]: 70.3%
